Measurements: publication PMC7969873 (Cell Reports, 2021)
Read-outs that look alike come from different tables or passages of the source.

How the values were obtained:
SARS-CoV-2 [1] = format: cell-based; details: 250 nM, Vero E6 cells, 48 h
SARS-CoV-2 [2] = test: microbe, parasite or virus in culture; format: cell-based; details: Severe acute respiratory syndrome coronavirus 2, Calu-3 cells, read-out: IC50, SARS-CoV-2 viral titer
SARS-CoV-2 [3] = details: HeLa-ACE2 cells
[4] = HeLa-ACE2 uninfected host cell cytotoxicity counter screen; format: cell-based; details: human, uninfected HeLa-ACE2 cells; read-out: median cytotoxic concentration (CC50)
Method: Compounds were acoustically transferred into 1,536-well μclear plates (Greiner Part. No. 789091). HeLa-ACE2 cells were maintained as described for the infection assay and seeded in the assay-ready plates at 400 cells/well in DMEM with 2% FBS and plates were incubated for 24 hours at 37°C 5% CO2. To assess cell viability, the Image-iT DEAD green reagent (Thermo Fisher) was used according to manufacturer instructions. Cells were fixed with 4% paraformaldehyde, and counterstained with DAPI.

SARS-CoV-2 [5] = test: microbe, parasite or virus in culture; format: cell-based; details: Severe acute respiratory syndrome coronavirus 2, A549-ACE2, 24 h, 24 h, read-out: IC50, SARS-CoV-2 immunostaining signal
SARS-CoV-2 [6] = test: microbe, parasite or virus in culture; format: cell-based; details: for IC50: IFA, read-out: IC50, inhibition of SARS-CoV-2 infectivity
hiPSC-CMs = test: Cardiomyocyte beating / in vitro cardiotoxicity in hiPSC-CMs; format: cell-based, human; details: 250 nM
Method: Thus, we used the human-induced pluripotent stem-cell-derived cardiomyocyte (hiPSC-CM) system for antiviral drug testing against SARS-CoV-2. […] Thus, this cardiomyocyte system is useful for antiviral drug testing against SARS-CoV-2. […] The inhibition of virus production by berzosertib was evaluated by quantifying the infectious virus (TCID50) in the supernatant at various time points (Figure 2B). […] Infection of cardiomyocytes with SARS-CoV-2 was confirmed by specific staining of cardiac troponin T (cTnT) and viral spike proteins (Figure 2E). Untreated SARS-CoV-2-infected cells had infection-mediated cell injury with disrupted troponin T fibers.

SARS-CoV-2 [7] = format: cell-based; details: hiPSC-CMs; 250 nM
SARS-CoV-2 [8] = test: SARS-CoV-2 infection of HEK293-ACE2 cells (IFA); format: cell-based; details: 250 nM, pre-treated 24 hours, one day post-infection
[9] = Severe acute respiratory syndrome coronavirus 2, Vero C1008, Vero E6 cells

FC(F)c1nc2ccccc2n1-c1nc(N2CCOCC2)nc(N2CCOCC2)n1 [ZSTK474]
antiviral activity (prevention of viral CPE) in primary screen (SARS-CoV-2 [1]): antiviral activity

CS(=O)(=O)N1CCN(Cc2cc3nc(-c4cccc5[nH]ncc45)nc(N4CCOCC4)c3s2)CC1 [GDC-0941, Pictilisib]
antiviral activity (prevention of viral CPE) in primary screen (SARS-CoV-2 [1]): antiviral activity

CCC(CC)COC(=O)[C@H](C)N[P@](=O)(OC[C@H]1O[C@@](C#N)(c2ccc3c(N)ncnn23)[C@H](O)[C@@H]1O)Oc1ccccc1 [Remdesivir]
IC50 (SARS-CoV-2 [2]): 150 nM | median effective dose (ED50), percentage of infected cells (SARS-CoV-2 [3]): 124 nM | CC50 at 24 h [4]: > 10000 nM | IC50 (SARS-CoV-2 [5]): 160 nM | IC50 (SARS-CoV-2 [5]; A549-ACE2 cells, […]): 200 nM

C[C@H](Nc1ncnc2nc[nH]c12)c1cc2cccc(Cl)c2c(=O)n1-c1ccccc1 [IPI-145]
antiviral activity (prevention of viral CPE) in primary screen (SARS-CoV-2 [1]): antiviral activity

Cc1ccc(C(=O)Nc2cccc(C(F)(F)F)c2)cc1Nc1nc(-c2cccnc2)nc2c1cnn2C [NVP-BHG712]
antiviral activity (prevention of viral CPE) in primary screen (SARS-CoV-2 [1]): antiviral activity

IFN-α
blocking of SARS-CoV-2 infection (IFA) (SARS-CoV-2 [6]; Vero E6 cells, 48 hpi, hydroxychloroquine and EIDD-2801 10 μM): effectively blocked

CN1CCN(Cc2ccc(-c3cnc4[nH]cc(-c5ccc6[nH]ccc6c5)c4c3)cc2)CC1 [URMC-099]
IC50 (SARS-CoV-2 [6]; [9]): 50 to 125 nM | antiviral activity (prevention of viral CPE) in primary screen (SARS-CoV-2 [1]): antiviral activity

CSc1cccc(Nc2ncc3cc(-c4c(Cl)cccc4Cl)c(=O)n(C)c3n2)c1 [PD173955]
antiviral activity (prevention of viral CPE) in primary screen (SARS-CoV-2 [1]): antiviral activity

O=C1NC(=O)/C(=C/c2ccc3c(c2)OC(F)(F)O3)S1 [AS-604850]
antiviral activity (prevention of viral CPE) in primary screen (SARS-CoV-2 [1]): antiviral activity

O=c1ncn2nc(Sc3ccc(F)cc3F)ccc2c1-c1c(Cl)cccc1Cl [VX-745]
antiviral activity (prevention of viral CPE) in primary screen (SARS-CoV-2 [1]): antiviral activity

CCCCCCCCCCCCCCCCCCOP(=O)([O-])OC1CC[N+](C)(C)CC1 [Perifosine]
antiviral activity (prevention of viral CPE) in primary screen (SARS-CoV-2 [1]): antiviral activity

CNC(=O)Nc1ccc(-c2nc(N3CC4CCC(C3)O4)c3cnn(C4CCC5(CC4)OCCO5)c3n2)cc1 [WYE-125132]
antiviral activity (prevention of viral CPE) in primary screen (SARS-CoV-2 [1]): antiviral activity

Nc1ccc(C(=O)Nc2cccc(-c3nc(N4CCOCC4)c4oc5ncccc5c4n3)c2)cn1 [YM201636]
antiviral activity (prevention of viral CPE) in primary screen (SARS-CoV-2 [1]): antiviral activity

COc1ccc(-c2ccc3c(N4CCOC[C@@H]4C)nc(N4CCOC[C@@H]4C)nc3n2)cc1CO [AZD8055]
antiviral activity (prevention of viral CPE) in primary screen (SARS-CoV-2 [1]): antiviral activity

O=C1c2ccc(Nc3ccc(F)cc3F)cc2CCc2ccc(OC[C@H](O)CO)cc21 [Skepinone-L]
antiviral activity (prevention of viral CPE) in primary screen (SARS-CoV-2 [1]): antiviral activity

Cn1c(=O)n(-c2ccc(C(C)(C)C#N)cc2)c2c3cc(-c4cnc5ccccc5c4)ccc3ncc21 [Dactolisib]
IC50 (SARS-CoV-2 [6]; [9]): 111 nM | cardiomyocyte beating (beats per minute) (hiPSC-CMs; SARS-CoV-2-infected hiPSC-CMs): affected the cardiomyocyte functional beating | in vitro cardiotoxicity (hiPSC-CMs; hiPSC-CMs): had cardiotoxicity | virus production (infectious virus, TCID50, in supernatant) (SARS-CoV-2 [7]): inhibited viral production

COc1cc2nccc(Oc3ccc(NC(=O)Nc4ccc(F)cc4F)c(F)c3)c2cc1OC [Ki8751]
antiviral activity (prevention of viral CPE) in primary screen (SARS-CoV-2 [1]): antiviral activity

Nc1ncnc2c1c(-c1cnc3[nH]ccc3c1)nn2C1CCCC1 [PP121]
antiviral activity (prevention of viral CPE) in primary screen (SARS-CoV-2 [1]): antiviral activity

Cc1cn(-c2cc(NC(=O)c3ccc(C)c(Nc4nccc(-c5cccnc5)n4)c3)cc(C(F)(F)F)c2)cn1 [Nilotinib]
IC50 (SARS-CoV-2 [6]; [9]): 50 to 125 nM | antiviral activity (prevention of viral CPE) in primary screen (SARS-CoV-2 [1]): antiviral activity | anti-viral activity in secondary screen (SARS-CoV-2 [8]): not exhibited potent anti-viral activity

Cc1c(CN2CCN(C(=O)[C@H](C)O)CC2)sc2c(N3CCOCC3)nc(-c3cnc(N)nc3)nc12 [GDC-0980]
antiviral activity (prevention of viral CPE) in primary screen (SARS-CoV-2 [1]): antiviral activity

Cn1cc(C2=C(c3cn(C4CCN(Cc5ccccn5)CC4)c4ccccc34)C(=O)NC2=O)c2ccccc21 [Enzastaurin]
antiviral activity (prevention of viral CPE) in primary screen (SARS-CoV-2 [1]): antiviral activity

CS(=O)(=O)N1CCc2c(-c3cnc(N)nc3)nc(N3CCOCC3)nc21 [CH5132799]
antiviral activity (prevention of viral CPE) in primary screen (SARS-CoV-2 [1]): antiviral activity

CCS(=O)(=O)Nc1ccc2c(c1)/C(=C(/Nc1ccc(CN3CCCCC3)cc1)c1ccccc1)C(=O)N2 [Hesperadin]
antiviral activity (prevention of viral CPE) in primary screen (SARS-CoV-2 [1]): antiviral activity

CO[C@H]1CC[C@H](N2C(=O)CNc3ncc(-c4ccc(C(C)(C)O)nc4)nc32)CC1 [CC-223, Onatasertib]
antiviral activity (prevention of viral CPE) in primary screen (SARS-CoV-2 [1]): antiviral activity

CC(C)(O)CNc1ncc(-c2ccnc(Nc3ccnc(Cl)c3)n2)c(CC2CC2)n1 [VPS34-IN1]
IC50 (SARS-CoV-2 [6]; [9]): 50 to 125 nM | antiviral activity (prevention of viral CPE) in primary screen (SARS-CoV-2 [1]): antiviral activity

Nc1ccc(-c2ccc3ncc4ccc(=O)n(-c5cccc(C(F)(F)F)c5)c4c3c2)cn1 [Torin 2]
IC50 (SARS-CoV-2 [6]; Vero E6 cells): < 25 nM | antiviral activity (prevention of viral CPE) in primary screen (SARS-CoV-2 [1]): antiviral activity

CNC(=O)c1cccc(-c2ccc3c(N4CCOC[C@@H]4C)nc(N4CCOC[C@@H]4C)nc3n2)c1 [AZD2014, Vistusertib]
IC50 (SARS-CoV-2 [6]; [9]): 34 nM | IC50 (SARS-CoV-2 [6]; Vero E6 cells): < 25 nM | antiviral activity (prevention of viral CPE) in primary screen (SARS-CoV-2 [1]): antiviral activity | anti-viral activity in secondary screen (SARS-CoV-2 [8]): not exhibited potent anti-viral activity

N#C/C(=C/c1ccc(O)c(O)c1)C(=O)NCc1ccccc1 [AG-490]
antiviral activity (prevention of viral CPE) in primary screen (SARS-CoV-2 [1]): antiviral activity

NC(=O)c1ccc(N(C(N)=O)c2c(F)cccc2F)nc1-c1ccc(F)cc1F [VX-702]
antiviral activity (prevention of viral CPE) in primary screen (SARS-CoV-2 [1]): antiviral activity

COc1cc2c(Nc3ccc(NC(=O)c4ccccc4)cc3)ncnc2cc1OCCCN1CCOCC1 [ZM 447439]
antiviral activity (prevention of viral CPE) in primary screen (SARS-CoV-2 [1]): antiviral activity

COc1cc2ncnc(Oc3cccc(NC(=O)Nc4cc(C(C)(C)C(F)(F)F)on4)c3)c2cc1OC [CEP-32496]
antiviral activity (prevention of viral CPE) in primary screen (SARS-CoV-2 [1]): antiviral activity

Cn1cc(-c2ccc3nnc(C(F)(F)c4ccc5ncccc5c4)n3n2)cn1 [JNJ-38877605]
antiviral activity (prevention of viral CPE) in primary screen (SARS-CoV-2 [1]): antiviral activity

CC(=O)Nc1nc(C)c(-c2ccc(Cl)c(S(=O)(=O)NCCO)c2)s1 [PIK-93]
antiviral activity (prevention of viral CPE) in primary screen (SARS-CoV-2 [1]): antiviral activity
